# Measurements taken from patent publication US12410187B2, “Fused tricyclic compounds useful as anticancer agents” (ASTRAZENECA AB, priority 2019, dated 2025).
# pIC50: −log10 of the molar value. Read-outs that look alike come from different tables or passages of the source.
# How the values were obtained:
# [1] = target: T1, KRasG12C (Homo sapiens, UniProt P01116, G12C); test: KRasG12C mass spectrometry adducting assay; assay type: binding; details: test compound final concentration 10 μM, 4 hours reaction with 4 μM GDP loaded biotinylated KRasG12C
# T1 construct: biotin (biotinylated); made in house
# Experimental: Enzyme solutions were prepared in assay buffer containing 20 mM HEPES (pH 7.5), 5 mM MgCl2, and 150 mM NaCl. […] The plate was sealed before reading on a Xevo G2 QTOF (Waters) and Acquity LC system (Waters). 10 μl of sample was injected onto a Xbridge BEH300; C4; 3.5 um; 2.1×50 mm column (Waters) running a 3 minute gradient. Blank samples were run in between each test sample.
# Data was analysed in Mass Lynx software (Waters), the Total ion count (TIC) trace was used and the eluted protein peak data combined. Using the combined spectrum the data was deconvoluted using MaxEnt1 method. The peak area for apo-protein KRas^G12C (APO) and KRAS+relative cmpd mass (adduct) were measured, and a percentage adduct was calculated using the following calculation: Percent adduct=100*(area of adduct peak/(sum of APO+adduct peaks).
# The data from this mass spectrometry adducing assay is presented in the column labelled KRasG12C M.S. Binding Mean adduct % in Table A below.
# [2] = target: T1, KRasG12C; test: KRasG12C functional assay (HTRF/FRET nucleotide exchange and Raf RBD binding); assay type: biochemical; details: samples incubated for 4 hrs, FRET readout, single experiment or average of two or more
# Experimental: All enzyme and substrate solutions were prepared in assay buffer containing 20 mM HEPES (pH 7.5), 5 mM MgCl2, 150 mM NaCl, and 0.01% Tween 20. […] In a separate mix 20 nM GST-Raf Ras binding domain (GST-Raf RBD, purified in house) and 4 μg/ml anti-GST XL665 antibody (Cisbio) was prepared in assay buffer containing 50 mM Potassium Fluoride and 0.05 mg/ml BSA and equilibrated for 4 hours before adding 0.6 μM Guanosine 5′-[γ-thio]triphosphate (GTPγS, Sigma) and 0.08 μM SOS (purified in house). 5 μl of the GST-RAF RBD mix was then dispensed into each well of the assay plate. […] This is detected simultaneously via the specific binding interaction between active GTPγS KRas^G12C with GST-Raf RBD which brings the europium and XL665 into close proximity enabling an increased FRET signal to be detected on a Pherastar (BMG) plate reader equipped with the HTRF filter module. […] IC50 values were calculated from normalised dose-response response FRET data curve fitted in Genedata screener (Basel, Switzerland).
# [3] = system: MDR1 (Pgp) and BCRP; test: Blood brain barrier penetrant assessment: efflux ratio in MDCK_MDR1_BCRP cells; assay type: in vitro ADME; details: human, MDCK cells doubly transfected with MDR1 (Pgp) and BCRP, ratio of 2 or less = potential for good BBB penetration, read-out: Hu MDCK-MDR1-BCRP (0.1 uM) Mean Efflux Ratio
# Experimental: In order to evaluate blood brain barrier (BBB) penetrant properties the efflux properties of compounds according to the specification was measured in cells transfected with the major efflux pumps expressed in the endothelial cells of the BBB. The assessment of efflux properties was performed using Madin-Darby Canine Kidney (MDCK) cells doubly transfected with MDR1 (Pgp) and BCRP. The transfected cell line, MDCK_MDR1_BCRP, thus expresses the two main efflux pumps that actively serve to exclude transit of compounds across the BBB and the efflux ration from these cell can be measured as described in the literature (Durant et al, Sci. Adv. 2018; eeat:1719). A compound that has an efflux ratio of 2 or less as measured by this technique is identified as having the potential for good BBB penetrant properties (Colclough et al, Drug Disc. Today 2019; 24(5), 1067-73).
# [4] = KRasG12C functional assay IC50, GDP loaded biotinylated KRasG12C
# [5] = GDP loaded biotinylated KRasG12C, read-out: KRasG12C functional assay IC50
# T1 sequence (P01116 1-188 isoform P01116-2 G12C): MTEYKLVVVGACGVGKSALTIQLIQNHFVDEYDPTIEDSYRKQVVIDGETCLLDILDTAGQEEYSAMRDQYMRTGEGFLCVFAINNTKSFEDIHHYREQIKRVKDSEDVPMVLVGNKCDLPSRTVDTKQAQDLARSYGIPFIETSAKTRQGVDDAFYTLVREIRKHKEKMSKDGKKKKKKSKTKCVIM
SMILES,KRasG12C M.S. Binding Mean adduct % [1] [%],"pIC50 [2, 4]",efflux ratio at 0.1 uM [3],"pIC50 [2, 5]"
"C=CC(=O)N1CCN2Cc3ccc(-c4c(C)ccc5[nH]ncc45)c(Cl)c3OC[C@@H]2C1 (single isomer, unassigned) [Example 3]",80,5.85,–,–
"C=CC(=O)N1CCN2Cc3ccc(-c4c(C)ccc5[nH]ncc45)c(Cl)c3OC[C@@H]2C1 (single isomer, unassigned) [Example 4]",0,4.13,0.9,–
"C=CC(=O)N1CCN2C(=O)c3ccc(-c4c(C)ccc5[nH]ncc45)c(Cl)c3OC[C@H]2C1 (single isomer, unassigned) [Example 8]",91,6.16,–,–
"C=CC(=O)N1CCN2Cc3ccc(-c4c(C)ccc5[nH]ncc45)c(Cl)c3OC[C@H]2C1 (single isomer, unassigned) [Example 10]",97,6.48,–,–

# The remaining lines, values ahead:
KRasG12C M.S. Binding Mean adduct % [1] [%],"pIC50 [2, 4]",efflux ratio at 0.1 uM [3],"pIC50 [2, 5]",SMILES
12,5.58,–,–,"C=CC(=O)N1CCN2Cc3cc(F)c(-c4c(O)cccc4Cl)c(F)c3OC[C@H]2C1 (single isomer, unassigned) [Example 42]"
95,7.48,0.7,–,"C=CC(=O)N1CCN2Cc3cc(F)c(-c4c(O)cccc4Cl)c(F)c3OC[C@H]2C1 (single isomer, unassigned) [Example 43]"
97,7.18,1.3,–,"C=CC(=O)N1CCN2Cc3cc(F)c(-c4c(C)cccc4O)c(F)c3OC[C@H]2C1 (single isomer, unassigned) [Example 45]"
–,–,0.9,7.85,"C=CC(=O)N1CCN2Cc3cc(C#CC)c(-c4c(O)cccc4Cl)c(Cl)c3OC[C@H]2C1 (single isomer, unassigned) [Example 109]"
–,–,1.5,7.36,"[2H]C([2H])([2H])Oc1nc2c(c(Cl)c1-c1c(O)cccc1Cl)OC[C@H]1CN(C(=O)C=C)CCN1C2 (single isomer, unassigned) [Example 112]"
–,–,0.7,7.71,"C#Cc1cc2c(c(Cl)c1-c1c(O)cccc1Cl)OC[C@H]1CN(C(=O)C=C)CCN1C2 [Example 78, 1-[(12aR)-10-Chloro-9-(2-chloro-6-hydroxyphenyl)-8-ethynyl-3,4,12,12a-tetrahydro-6H-pyrazino[2,1-c][1,4]benzoxazepin-2(1H)-yl]prop-2-en-1-one]"
